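Dose response: 5 concentrations. Exposure: 48 h. Format: 96-well plates. Endpoint: linear interpolation; highest concentration if not reached. GI50 marks 50% less growth.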 The source made the active and inactive calls. Cut-off read from the data, not from the text of the source: active = GI50 up to about 1.1 µM and inactive = higher.
Assays:
Assay in all cases: DTP human tumour cell line panel, 48 h
COLO 205 = system: COLO 205
A549 = system: A549
NCI-H460 = system: NCI-H460
MCF7 = system: MCF7
RXF 393 = system: RXF 393
ACHN = system: ACHN
CAKI-1 = system: CAKI-1
OVCAR-8 = system: OVCAR-8
EKVX = system: EKVX
UACC-62 = system: UACC-62
SK-MEL-5 = system: SK-MEL-5
SF-295 = system: SF-295
HCC 2998 = system: HCC 2998
M14 = system: M14
OVCAR-4 = system: OVCAR-4
SNB-19 = system: SNB-19
786-0 = system: 786-0
NCI/ADR-RES = system: NCI/ADR-RES
UACC-257 = system: UACC-257
HOP-18 = system: HOP-18

SMILES	GI50 (COLO 205)	GI50 (A549)	GI50 (NCI-H460)	GI50 (MCF7)	GI50 (RXF 393)	GI50 (ACHN)	GI50 (CAKI-1)	GI50 (OVCAR-8)	GI50 (EKVX)	GI50 (UACC-62)	GI50 (SK-MEL-5)	GI50 (SF-295)	GI50 (HCC 2998)	GI50 (M14)	GI50 (OVCAR-4)	GI50 (SNB-19)	GI50 (786-0)	GI50 (NCI/ADR-RES)	GI50 (UACC-257)	GI50 (HOP-18)
COc1cc(I)c2c3c1OC1C34CCN(C)C(C2)C4=CC(I)C1(OC)OC (stereo not given)	19.4 µM (inactive)	29.6 µM (inactive)	19.1 µM (inactive)	20.7 µM (inactive)	16.3 µM (inactive)	27 µM (inactive)	22.4 µM (inactive)	20.1 µM (inactive)	29.6 µM (inactive)	19.2 µM (inactive)	17.1 µM (inactive)	46.2 µM (inactive)	15.3 µM (inactive)	37.4 µM (inactive)	15 µM (inactive)	27.4 µM (inactive)	20.3 µM (inactive)	28.2 µM (inactive)	19.3 µM (inactive)	
COc1ccc2c(-c3ccc(O)cc3)c(Oc3ccc(Cl)cc3)c(=O)oc2c1	6.08 µM (inactive)	4.7 µM (inactive)	5.2 µM (inactive)	3.63 µM (inactive)	8.34 µM (inactive)	8.11 µM (inactive)	2.81 µM (inactive)	> 34 µM (inactive)	3.14 µM (inactive)	4.98 µM (inactive)	3.48 µM (inactive)	6.43 µM (inactive)	10.8 µM (inactive)	6.07 µM (inactive)	5.77 µM (inactive)	3.89 µM (inactive)	7.85 µM (inactive)	> 19.8 µM (inactive)	8.95 µM (inactive)	
[N-]=[N+]=NC1(c2ccccc2)C(=O)c2cccc3c4ccccc4n(c23)C1=O (stereo not given)	6.5 µM (inactive)	76.2 µM (inactive)	> 100 µM (inactive)	54 µM (inactive)	> 100 µM (inactive)	> 100 µM (inactive)	> 100 µM (inactive)	> 100 µM (inactive)	92.3 µM (inactive)	50 µM (inactive)	> 100 µM (inactive)	57.8 µM (inactive)	> 100 µM (inactive)	> 100 µM (inactive)	> 100 µM (inactive)	> 100 µM (inactive)	> 100 µM (inactive)	33.5 µM (inactive)	> 100 µM (inactive)	
COc1ccc(Nc2nc3ccccc3nc2C(=O)O)cc1	37.7 µM (inactive)	> 100 µM (inactive)	23.6 µM (inactive)	> 100 µM (inactive)	> 100 µM (inactive)	55 µM (inactive)	46.6 µM (inactive)	71.3 µM (inactive)	54.5 µM (inactive)	> 100 µM (inactive)	37.2 µM (inactive)	61.7 µM (inactive)	3.46 µM (inactive)	> 100 µM (inactive)	> 100 µM (inactive)	> 100 µM (inactive)	49.1 µM (inactive)	38.9 µM (inactive)	> 100 µM (inactive)	
COc1ccc(/C=C2\CC3C4CC=C5C[C@@H](O)CC[C@]5(C)C4CC[C@]3(C)C2=O)cc1OC (stereo not given in full)	16.3 µM (inactive)	27.9 µM (inactive)	17.3 µM (inactive)	23.3 µM (inactive)	34 µM (inactive)	24.5 µM (inactive)	29.2 µM (inactive)	43.3 µM (inactive)	28.2 µM (inactive)	42.9 µM (inactive)	7.05 µM (inactive)	11.4 µM (inactive)	14.9 µM (inactive)	65 µM (inactive)	21.8 µM (inactive)	62.4 µM (inactive)	40.3 µM (inactive)	45 µM (inactive)	13 µM (inactive)	
O=C(CC(=O)Nc1ccccc1Cl)NNC(c1cc(/N=N/c2ccc(Br)cc2)ccc1O)P(O)O (stereo not given)	3.89 µM (inactive)	3.82 µM (inactive)	0.537 µM (active)	0.791 µM (active)	1.34 µM (inactive)	0.813 µM (active)	1.36 µM (inactive)	0.525 µM (active)	4.22 µM (inactive)	0.964 µM (active)	1.19 µM (inactive)	1.67 µM (inactive)	3.8 µM (inactive)	0.61 µM (active)	2.34 µM (inactive)	4.1 µM (inactive)	0.565 µM (active)	1.07 µM (active)	3.2 µM (inactive)	
CC1(O)CC2C(CC1SCCO)C2(C)C (stereo not given)	> 100 µM (inactive)	> 100 µM (inactive)	> 100 µM (inactive)			> 100 µM (inactive)		> 100 µM (inactive)	> 100 µM (inactive)		> 100 µM (inactive)	> 100 µM (inactive)	> 100 µM (inactive)	> 100 µM (inactive)	> 100 µM (inactive)		> 100 µM (inactive)		> 100 µM (inactive)	> 100 µM (inactive)
COc1ccc2cc(C(C)C(=O)N3CCOC3=O)ccc2c1 (stereo not given)	> 100 µM (inactive)	> 100 µM (inactive)	> 100 µM (inactive)	> 100 µM (inactive)	> 100 µM (inactive)	> 100 µM (inactive)	> 100 µM (inactive)	> 100 µM (inactive)	> 100 µM (inactive)	> 100 µM (inactive)	> 100 µM (inactive)	> 100 µM (inactive)	> 100 µM (inactive)	> 100 µM (inactive)	> 100 µM (inactive)	> 100 µM (inactive)	> 100 µM (inactive)	> 100 µM (inactive)	> 100 µM (inactive)	
COc1c2c(cc3c1C(O)N1CC[C@]34[C@H]3O[C@H]3[C@H](OC)C[C@@H]14)OCO2 (stereo not given in full)	97.9 µM (inactive)	> 100 µM (inactive)	72.3 µM (inactive)	35 µM (inactive)	67.5 µM (inactive)	> 100 µM (inactive)	> 100 µM (inactive)	> 100 µM (inactive)	> 100 µM (inactive)	39.3 µM (inactive)	64.6 µM (inactive)	27.2 µM (inactive)	> 100 µM (inactive)	85.3 µM (inactive)	> 100 µM (inactive)	> 100 µM (inactive)	> 100 µM (inactive)	> 100 µM (inactive)	64.6 µM (inactive)	
c1ccc(-c2c(-c3[nH]c4ccccc4c3-c3ccccc3)[nH]c3ccccc23)cc1	1.91 µM (inactive)	3.5 µM (inactive)	2.95 µM (inactive)	3.33 µM (inactive)	1.82 µM (inactive)	3.33 µM (inactive)	3.33 µM (inactive)	4.29 µM (inactive)	3.89 µM (inactive)	9.98 µM (inactive)	4.16 µM (inactive)	4.18 µM (inactive)	1.82 µM (inactive)	3.54 µM (inactive)	2.17 µM (inactive)	6.5 µM (inactive)	2.07 µM (inactive)	3.72 µM (inactive)	12.3 µM (inactive)	
O=c1c(Sc2ncccn2)c(Sc2ncccn2)cnn1CCl	1.76 µM (inactive)	16.4 µM (inactive)	14.7 µM (inactive)	2.88 µM (inactive)	1.5 µM (inactive)	2.21 µM (inactive)	1.98 µM (inactive)	2.08 µM (inactive)	2.9 µM (inactive)	5.75 µM (inactive)	6.87 µM (inactive)	15.3 µM (inactive)	10.8 µM (inactive)	2.12 µM (inactive)	2.15 µM (inactive)	17 µM (inactive)	1.87 µM (inactive)	4.97 µM (inactive)	2.17 µM (inactive)	
CC1(C)C(C#N)C1C1=C(N2CCOCC2)[C@]2(C)C(OC(=O)c3ccccc3)CC[C@@H]2C1 (stereo not given in full)	95.3 µM (inactive)	> 100 µM (inactive)	> 100 µM (inactive)	72.6 µM (inactive)	35.6 µM (inactive)	> 100 µM (inactive)	> 100 µM (inactive)	> 100 µM (inactive)	> 100 µM (inactive)	> 100 µM (inactive)	29.8 µM (inactive)	> 100 µM (inactive)	> 100 µM (inactive)	> 100 µM (inactive)	> 100 µM (inactive)	> 100 µM (inactive)	> 100 µM (inactive)	> 100 µM (inactive)	> 100 µM (inactive)	
CCN(CC)CCO/N=C1\CC[C@H]2[C@@H]3CCc4cc(OC)ccc4[C@H]3CC[C@]12C	1.57 µM (inactive)	2.84 µM (inactive)	0.804 µM (active)	3.66 µM (inactive)	1.6 µM (inactive)	3.57 µM (inactive)	0.74 µM (active)	2.6 µM (inactive)	3.16 µM (inactive)	0.82 µM (active)	1.73 µM (inactive)	1.83 µM (inactive)	1.71 µM (inactive)	0.467 µM (active)	9.08 µM (inactive)	8.38 µM (inactive)	1.59 µM (inactive)	5.41 µM (inactive)	0.859 µM (active)	
O=C1/C(=C/c2ccc(Cl)cc2)Oc2cc(O)ccc21 [6-HYDROXY-4'-CHLORO AURONE]	> 100 µM (inactive)	30.1 µM (inactive)	25.1 µM (inactive)	34 µM (inactive)	39.4 µM (inactive)	28.1 µM (inactive)	> 10 µM (inactive)	31.9 µM (inactive)	29.2 µM (inactive)	34.2 µM (inactive)	23.4 µM (inactive)	38.4 µM (inactive)	39.3 µM (inactive)	50.6 µM (inactive)	47.5 µM (inactive)	26.6 µM (inactive)	33.3 µM (inactive)	24.9 µM (inactive)	31.2 µM (inactive)	
CCOC(=O)c1sc2c(c1OC(=O)c1ccc(OC)cc1)c(=O)n(-c1ccccc1)c(=S)n2-c1ccccc1	> 100 µM (inactive)	> 100 µM (inactive)	94.6 µM (inactive)	> 100 µM (inactive)	> 100 µM (inactive)	> 100 µM (inactive)	> 100 µM (inactive)	> 100 µM (inactive)	> 100 µM (inactive)	> 100 µM (inactive)	27.6 µM (inactive)	> 100 µM (inactive)	16.3 µM (inactive)	> 100 µM (inactive)	10.2 µM (inactive)	> 100 µM (inactive)	35.5 µM (inactive)	21.8 µM (inactive)	> 100 µM (inactive)	

From ChEMBL document CHEMBL1201862, “PubChem BioAssay data set” (2004)
